# From patent US20230390315A1, “COMPOSITIONS AND METHODS FOR TREATING ISCHEMIC CONDITIONS” (The Regents of the University of California, priority 2020, published 2023)
# What was measured:
# human keratinocytes = experiment: Human keratinocyte proliferation assay; format: cell-based
# Method: Proliferation assays with fibroblasts were done in low-glucose DMEM containing 1% FBS, with or without 10 ng/ml bFGF, or 100 ng/ml human EGF and the assay was ended at day 3. ARPE-19 cells were gently lifted with 0.025% trypsin and plated in RtEGM media (Clonetics) containing 2% FBS, L-glutamine, human bFGF and GA-1000. Once cells were attached to plates, serum-free RtEGM media was used to maintain the cultures. For proliferation assays, 1500 human RPE cells were plated into 96-well plates in low-glucose DMEM containing 1% FBS. A673, U87MG, Calu6 and AML12 cells were grown until confluent and were then harvested and re-suspended in appropriate assay media. For proliferation assays, cells were plated at the density of 1000-2000 cells/well in low-glucose DMEM containing 5% FBS or otherwise stated. Bovine pituitary cells (pituitary folliculostellate cells) were isolated as previously described. For proliferation assays with human epidermal keratinocytes, human DMVECs and human dermal fibroblast cells, 1000 cells/well were plated in low-glucose DMEM containing 1% FBS with or without various growth factors. The assay was ended at day 3 for bovine pituitary cells and at day 4 for all the other cell types. […] Four days later, tumor cell growth was measured by the MTS assay (Promega, Madison, WI), a colorimetric assay that measures metabolic activity of viable cells. […]
# β-Glucosidase = experiment: β-glucosidase activity assay; format: biochemical, almond; conditions: up to 2 mM
# Method: a-mannosidase activity was measured using substrate p-nitrophenyl α-mannopyranoside (1 mM). Enzyme from Jack Bean ([…]) (final concentration of 0.077 U) was incubated at 37° C. in a final volume of 50 μl of 50 mM potassium phosphate buffer, pH 7.5. α-glucosidase was assayed with substrate p-nitrophenyl α-glucoside (7 mM). Enzyme from Saccharomyces cerevisiae-type 1 (Sigma, G5003) (final concentration of 0.1 U) was incubated at 37° C. in a final volume of 50 μl of PBS, pH 7.5. β-Glucosidase was assayed with substrate 4-nitrophenyl β-D-glucopyranoside (Roche). Enzyme from almond (Sigma, G0395) (final concentration of 0.002 U) was incubated at 37° C. in a final volume of 50 μl of PBS, pH 7.5 containing 1% SDS. The incubation was stopped by addition of an equal volume of acid-based stop solution (R&D systems, 895032). Enzymatic activity was measured at 405 nm. α-glucosidase from Saccharomyces cerevisiae type I ([…]) with p-nitrophenyl α-D-glucopyranoside (Sigma, N1377) as the substrate.
# HUVEC = HUVEC migration assay; format: cell-based, human; conditions: 40 uM ManN alone
# Method: (§1) HUVECs (passage 6-8) were cultured and serum-starved as described in “Western Blots”. Ten thousand cells in 150 μl of EBM-2 medium were then added to the upper chamber of 8 μm pore size cell culture inserts (Falcon) coated with 0.1% gelatin. The lower compartment was filled with 600 μl EBM-2 medium containing various agents. The plates were incubated at 37° C. to allow migration. After 4 hrs, cells were fixed with 4% PFA for 20 min and then stained with crystal violet (Sigma-Aldrich) for 20 min at RT. Migrated cells on the bottom side of the insert membrane were quantified by counting whole area of the insert at 40× magnification. The experiments were carried out in triplicate and repeated three times. BCEC migration was set up similarly, except that wells were coated with FN, cells were suspended in 1% serum media and migration time was 18-24 hrs.
# BCEC = BCEC transwell migration assay; format: cell-based, bovine; conditions: ManN at 40 uM
# Method: as §1
# [1] = ManN stability in wound fluid from S. aureus infected mice; format: in vitro ADME, mouse; conditions: up to 24 hours at 37° C.
# Method: To test ManN stability in wound fluid collected from mice with skin infection as described below, 1.5 μl of 5% ManN solution was added to each 200 μl wound fluid which was first diluted 1:1 (v/v) with PBS. At each time point, samples were taken from 37° C. incubator and stored at −80° C. Plasma proteins were precipitated by adding ice cold acetonitrile to plasma: acetonitrile 1:3 (v/v) ratio. Samples were kept over ice for 1 hr and then centrifuged at 12000 g for 10 min at 7° C. to form a pellet. Supernatants were transferred to other tubed, dried down on a Speed Vac and then reconstituted in UltraPure distilled water and filtered through pre-washed Nanosep 3K Omega filters (Pall Corporation). The filtrate was dried down on Speed Vac. The dry samples were dissolved in 100 μl of water and 2 μL plasma or wound fluid sample was subjected to HPLC analysis. Neutral and amino sugars were separated on a Dionex CarboPac™ PA1 column 4 mm×250 mm with 4 mm×50 mm guard column. An isocratic gradient of 19 mM sodium hydroxide with 0.95 mM sodium acetate was used at a flow rate of 1 ml/min with 20 min run. Data was collected using the Dionex ICS-3000 HPLC system with pulsed amperometric detector using standard Quad waveform. ManN was identified and quantified by comparison with monosaccharide standard using Thermo Scientific Chromeleon software. No ManN samples served as negative controls. […]
compound,measurement,setting,value
"N[C@H](C=O)[C@@H](O)[C@H](O)[C@H](O)CO [ManN, 2-Amino-2-deoxy-D-mannose]","cellular toxicity, sensitivity among cell types",human keratinocytes; 5 mM level of ManN,least sensitive
same,proliferation of human keratinocytes,human keratinocytes; alone or in combination with growth factors,no increases in proliferation
same,effect on β-glucosidase,β-Glucosidase,No effect
same,HUVEC migration,HUVEC,stimulation of migration
same,additivity with VEGF in promoting BCEC migration,BCEC,significant additivity with VEGF
same,loss of free ManN on incubation with wound fluid,[1],No significant loss of free ManN
